{"source": "paper PMC3401280", "about": "“Moth Sex Pheromone Receptors and Deceitful Parapheromones” (PLoS ONE, 2012)", "assay_type_in_all_cases": "cell-based", "key": {"HvirOR13 (HR13)": {"target": "T1, HvirOR13 (HR13) (Heliothis virescens, UniProt Q6A1K1)", "T1 construct": "full ORF (AJ748328) in pGEMHE, expressed in Xenopus oocytes; with HvirOrco (HR2)", "T1 sequence (Q6A1K1 1-425)": "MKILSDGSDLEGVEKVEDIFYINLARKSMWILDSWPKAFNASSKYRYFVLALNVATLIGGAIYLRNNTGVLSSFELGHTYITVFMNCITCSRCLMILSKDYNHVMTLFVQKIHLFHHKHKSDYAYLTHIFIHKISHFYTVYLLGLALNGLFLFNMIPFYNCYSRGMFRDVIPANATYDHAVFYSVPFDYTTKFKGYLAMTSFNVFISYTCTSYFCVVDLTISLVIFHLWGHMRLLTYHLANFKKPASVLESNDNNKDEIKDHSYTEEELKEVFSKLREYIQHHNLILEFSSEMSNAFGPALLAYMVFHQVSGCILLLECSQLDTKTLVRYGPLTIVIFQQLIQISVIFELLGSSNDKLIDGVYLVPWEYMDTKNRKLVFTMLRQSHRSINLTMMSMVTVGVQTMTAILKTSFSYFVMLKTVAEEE", "T1 sequence (Q8MMI4 1-472 partner)": "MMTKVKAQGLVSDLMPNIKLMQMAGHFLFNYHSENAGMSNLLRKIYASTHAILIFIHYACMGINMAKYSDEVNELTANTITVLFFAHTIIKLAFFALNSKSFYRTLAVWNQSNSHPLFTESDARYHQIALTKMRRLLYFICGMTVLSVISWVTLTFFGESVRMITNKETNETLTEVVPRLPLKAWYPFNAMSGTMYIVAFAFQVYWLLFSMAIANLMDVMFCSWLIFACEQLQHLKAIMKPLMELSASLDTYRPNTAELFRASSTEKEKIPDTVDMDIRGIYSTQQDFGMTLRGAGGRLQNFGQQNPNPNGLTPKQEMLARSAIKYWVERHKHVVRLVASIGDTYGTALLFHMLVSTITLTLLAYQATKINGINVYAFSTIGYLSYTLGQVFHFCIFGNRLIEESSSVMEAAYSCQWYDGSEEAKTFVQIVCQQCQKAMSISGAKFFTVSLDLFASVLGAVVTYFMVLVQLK", "assay": "two-electrode voltage clamp in Xenopus oocytes"}, "AtraOR1 [1]": {"target": "T2, AtraOR1 (Amyelois transitella, UniProt J7FXC2)", "T2 construct": "full ORF (428 residues, JX173648) in pGEMHE, expressed in Xenopus oocytes; with AtraOrco", "T2 sequence (J7FXC2 1-427)": "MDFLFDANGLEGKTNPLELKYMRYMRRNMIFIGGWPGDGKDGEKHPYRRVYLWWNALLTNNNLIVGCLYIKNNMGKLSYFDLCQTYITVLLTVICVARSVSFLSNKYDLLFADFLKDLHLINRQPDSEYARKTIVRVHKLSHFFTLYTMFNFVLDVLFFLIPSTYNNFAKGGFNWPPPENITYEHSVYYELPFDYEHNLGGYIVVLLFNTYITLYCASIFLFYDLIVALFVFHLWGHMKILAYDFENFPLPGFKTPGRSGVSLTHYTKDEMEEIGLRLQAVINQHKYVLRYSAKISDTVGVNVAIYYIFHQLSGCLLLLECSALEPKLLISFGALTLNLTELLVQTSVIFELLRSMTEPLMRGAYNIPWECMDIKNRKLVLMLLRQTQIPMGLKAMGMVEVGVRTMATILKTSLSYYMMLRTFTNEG", "T2 sequence (J7G1V0 1-474 partner)": "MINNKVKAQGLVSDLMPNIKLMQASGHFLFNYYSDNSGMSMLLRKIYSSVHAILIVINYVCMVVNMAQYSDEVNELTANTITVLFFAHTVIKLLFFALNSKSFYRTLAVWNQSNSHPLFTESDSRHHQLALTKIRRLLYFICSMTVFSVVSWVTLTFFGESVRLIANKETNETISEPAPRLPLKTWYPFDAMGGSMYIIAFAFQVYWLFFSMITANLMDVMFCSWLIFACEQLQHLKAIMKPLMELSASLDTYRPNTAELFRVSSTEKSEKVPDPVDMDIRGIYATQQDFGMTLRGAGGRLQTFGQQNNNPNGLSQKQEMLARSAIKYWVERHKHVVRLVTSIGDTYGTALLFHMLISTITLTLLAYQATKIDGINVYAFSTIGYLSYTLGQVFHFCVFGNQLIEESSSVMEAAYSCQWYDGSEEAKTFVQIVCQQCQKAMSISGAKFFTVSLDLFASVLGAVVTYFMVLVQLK", "assay": "two-electrode voltage clamp in Xenopus oocytes"}, "AtraOR1 [2]": {"target": "T2, AtraOR1", "assay": "two-electrode voltage clamp in Xenopus oocytes, screened at […]"}}, "note": "Counter-ions that a name gives are not always drawn. Like-named read-outs stand apart in the source and are kept apart here.", "data": [{"molecule": "CCCC/C=C\\CCCCCCCCOC=O", "note": "[Z9-14OFor, (9Z)-tetradecen-1-yl formate]", "values": [{"measurement": "EC50", "setting": "HvirOR13 (HR13)", "result": 33, "unit": "nM"}]}, {"molecule": "CC/C=C\\C=C/CCCCCCCCOC=O", "note": "[Z9Z11-14OFor, (9Z,11Z)-tetradecadien-1-yl formate]", "values": [{"measurement": "EC50", "setting": "AtraOR1 [1]", "result": 90, "unit": "nM"}]}, {"molecule": "CCCC/C=C\\CCCCCCCCCC=O", "note": "[Z11-16Ald, (11Z)-hexadecenal]", "values": [{"measurement": "EC50", "setting": "HvirOR13 (HR13); read-out: EC50", "result": 150, "unit": "nM"}]}, {"molecule": "CC/C=C\\C=C/CCCCCCCCCC=O", "note": "[Z11Z13-16Ald, (11Z,13Z)-hexadecadienal]", "values": [{"measurement": "EC50", "setting": "AtraOR1 [1]", "result": 499, "unit": "nM"}]}, {"molecule": "CC/C=C\\C=C/CCCCCCCCCCO", "note": "[Z11Z13-16OH, (11Z,13Z)-hexadecadien-1-ol]", "values": [{"measurement": "two-electrode voltage clamp in Xenopus oocytes, screened at 100 μM", "setting": "AtraOR1 [2]", "result": "AtraOR1•AtraOrco-expressing oocytes showed moderate response to Z11Z13-16OH"}]}]}
